{
  "source": "patent US12150945B2",
  "about": "“Liver disease” (Lipocine Inc., priority 2018, dated 2024)",
  "test_system": "lipids",
  "test": "Lipid parameters (HDL, LDL, total cholesterol, triglycerides, non-HDL cholesterol), change from baseline to end of study, trial of Example 1",
  "type": "in vivo, human",
  "protocol": "Oral testosterone therapy was evaluated in a multicenter, phase 3, randomized, open-label, active controlled, parallel-group study that included a 13-week efficacy phase and a 52-week safety phase. An active arm in which subjects received T gel was included for safety evaluation only.\nSubjects were randomized in a 2:1 ratio to oral testosterone undecanoate or T gel. oral testosterone undecanoate subjects started at a dose of 225 mg TU (“testosterone undecanoate”) taken twice daily (total daily dose: 450 mg TU) every 12 hours. For optimal lymphatic absorption oral testosterone undecanoate must be administered with a meal. Therefore, subjects were instructed to administer oral testosterone undecanoate after a standard meal (defined as a meal consisting of 800 to 1400 calories with approximately 20% to 35% fat content). The oral testosterone undecanoate dose was titrated at Weeks 4 and 8, if necessary, based on results of intensive 24-hour PK blood sampling obtained at Weeks 3 and 7, respectively. Oral testosterone undecanoate subjects stayed at the clinic overnight during each intensive PK blood sampling period. […] Oral testosterone undecanoate dose levels permitted during the study were 150 mg BID, 225 mg BID, and 300 mg BID. Data collected during an intensive 24-hour PK sampling overnight stay at Week 13 were used for efficacy analysis; dose was not adjusted at this visit. Additional outpatient visits were conducted at Weeks 26, 39, and 52 during which single blood draws were performed 3 to 6 hours post morning dose. Dose was not adjusted during these visits.\nT gel (ANDROGEL®) (testosterone gel for topical use) 1.62%, AbbVie, Chicago, Illinois, US) was supplied in non-aerosol, metered dose pumps that deliver 20.25 mg T per complete pump actuation. T gel was dosed according to product labeling. Subjects receiving T gel completed outpatient visits at Weeks 2 and 4 with single blood draws to determine titration and at Weeks 3 and 5 for dose changes, if necessary. They also completed an outpatient visit at Week 7 for safety assessments and at Weeks 13, 26, 39 and 52 during which single blood samples were obtained 3 to 6 hours after the morning dose. Dose was not adjusted during these visits. Overnight clinic stays were not required for T gel subjects.\nSafety endpoints included adverse events (AEs), physical examination findings, vital signs, electrocardiograms (ECGs), and clinical laboratory tests. AEs were classified using the Medical Dictionary for Regulatory Activities (Version 16.1). Safety endpoints were summarized using descriptive statistics. Lab parameters were evaluated using two sample t-tests comparing change from baseline to end of study (EOS) across oral testosterone undecanoate and T gel subjects with p-values <0.05 considered statistically significant.",
  "key": {"[1]": {"details": "4th quartile patients based on lab parameter level, 1 Year Oral TU Study"}, "[2]": {"details": "Safety Set, baseline to end of study"}},
  "data": [
    {"smiles": "CCCCCCCCCCC(=O)O[C@H]1CC[C@H]2[C@@H]3CCC4=CC(=O)CC[C@]4(C)[C@H]3CC[C@]12C", "note": "[oral testosterone undecanoate, testosterone undecanoate]", "values": [
      {"measurement": "LDL-C, mean change from baseline", "setting": "[1]", "value": -10.2, "unit": "mg/dL"},
      {"measurement": "LDL-C, mean change from baseline, %", "setting": "[1]", "value": "−6.1", "unit": "%"},
      {"measurement": "Non-HDL-C, mean change from baseline", "setting": "[1]", "value": -18.2, "unit": "mg/dL"},
      {"measurement": "Non-HDL-C, mean change from baseline, %", "setting": "[1]", "value": "−8.7", "unit": "%"},
      {"measurement": "Total Cholesterol, mean change from baseline", "setting": "[1]", "value": -20.2, "unit": "mg/dL"},
      {"measurement": "Total Cholesterol, mean change from baseline, %", "setting": "[1]", "value": "−7.9", "unit": "%"},
      {"measurement": "Triglycerides, mean change from baseline", "setting": "[1]", "value": -85.1, "unit": "mg/dL"},
      {"measurement": "Triglycerides, mean change from baseline, %", "setting": "[1]", "value": "−19.0", "unit": "%"},
      {"measurement": "Cholesterol, mean (SD) change from baseline to end of study", "setting": "[2]", "value": "-0.24 (0.82) mmol/L"},
      {"measurement": "HDL cholesterol, mean (SD) change from baseline to end of study", "setting": "[2]", "value": "−0.14 (0.22) mmol/L"},
      {"measurement": "LDL cholesterol, mean (SD) change from baseline to end of study", "setting": "[2]", "value": "−0.05 (0.66) mmol/L"},
      {"measurement": "Triglyceride, mean (SD) change from baseline to end of study", "setting": "[2]", "value": "−0.18 (1.14) mmol/L"},
      {"measurement": "Serum HDL cholesterol decrease at EOS", "setting": "compared with T gel", "value": "significantly larger decrease"},
      {"measurement": "HDL cholesterol: subjects with a shift from normal at baseline to low at EOS", "setting": "in vivo", "value": 19.0, "unit": "%"},
      {"measurement": "other lipid parameters, difference between oral testosterone undecanoate and T gel", "setting": "lipid parameters other than HDL cholesterol", "value": "No statistically significant differences"}
    ]}
  ]
}
